From publication PMC6433934, “Preclinical Evaluation of Bispecific Adaptor Molecule Controlled Folate Receptor CAR-T Cell Therapy With Special Focus on Pediatric Malignancies” (Frontiers in Oncology, 2019)
pEC50: −log10 of the molar value.

Columns and labels:
MDA-MB-231 tumor = test: Kinetics of CAR-T cell expansion and tumor uptake in vivo; design: species or system NSG mice; conditions: ~4.8 million EGFRt-sorted E2-CAR-T cells day 0, EC17 500 nmol/kg weekly i.v.
Description: All animal care and use were performed according to NIH guidelines and in compliance with protocols approved by the Purdue University Animal Use and Care Committee. Female 4 to 5-weeks-old NOD/SCID gamma (NSG™) mice (stock number: 005557) were purchased from The Jackson Laboratory (Bar Harbor, ME). Unless specifically indicated, all animals were maintained on a FA-deficient diet (TestDiet, St. Louis, MO) upon arrival and throughout the study. To establish subcutaneous xenografts, MDA-MB-231 and HOS-FRα were implanted in the right flank region at 2.5 × 10^6 and 1 × 10^6 cells per animal, respectively. For intravenous xenografts, THP1-FRβ cells were inoculated at 5 × 10^6 cells per animal. Subcutaneous tumors were measured 2–3 times per week with a caliper and calculated using the ellipsoidal formula (length x width^2)/2. […] All animal doses (CAR-T cells, EC17, sodium fluorescein) were given intravenously.
To study CAR-T cell expansion in vivo, we started with 15 MDA-MB-231 tumor bearing mice having ~4.8 million EGFRt-sorted E2-CAR-T cells (1:1 CD4/CD8) injected on day 0. […] For each collection, fresh blood and tumor samples (if available) were analyzed for the presence of human CD3ε+ EGFRt+ CAR-T cells by flow cytometry. Moreover, we analyzed phenotypic changes of E2-CAR-T cells in the circulation (TSCM, TCM, TEM, and TEFF) and the activation status of tumor-infiltrating CAR-T cells (i.e., CD137/4-1BB, PD1).
For CAR-T cell analysis in the circulation, plasma was removed from a predetermined volume of whole blood collected into tubes containing ethylenediaminetetraacetic acid anticoagulant. […] A minimum of 20,000 propidium iodide negative live cell events were collected on the Gallios flow cytometer and analyzed with the Kaluza software, version 2.1 (Beckman Coulter, Brea, CA). CAR-positive T cells were identified in mouse blood as human CD3ε+ EGFRt+ events and absolute numbers per volume of blood were calculated using equal numbers of CountBright™ beads (Invitrogen, Carlsbad, CA) added to each sample. […]

HOS-FRα = test: EC17 dose response, co-culture with E2-CAR-T cells, LDH specific lysis; format: cell-based, human
From the text: (§1) To investigate EC17 CAM action in vitro, pure EGFRt-sorted CD4 and CD8 CAR-T cells were admixed in a 1:1 ratio and matching mock-transduced T cells were included per experimental design. Other than FR+/- isogenic pairs of AML and osteosarcoma cell lines, we added KB, MDA-MB-231 and OV90 to represent different histological tumor types and FR expression levels. All FR+ target cell lines were subjected to a direct ^3H-FA binding assay to quantitate the number of FR molecules bound/cell ([38]). Prior to co-culture experiments, cryopreserved CAR-T cells were allowed to recover for 2–3 days in T cell culture medium. All effector and target cells were pre-washed with FFRPMI to remove any exogenous FA that could compete against EC17. Short-term co-culture studies of ≤ 3 days were carried out in FFRPMI without adding any exogenous cytokines.
(§2) For an EC17 dose response study, FR+ cancer cell lines (KB, MDA-MB-231, HOS-FRα, THP1-FRβ, OV90) were co-cultured with EGFRt-sorted E2-CAR-T cells at an effector-to-target (E/T) ratio of 1:1 in the presence of EC17 ranging from 0.1 pM to 100 μM in 10-fold increments. After 24 h of co-culture, supernatants were harvested to determine target cell killing by Promega's CytoTox 96® LDH assay kit and expressed as specific lysis (%) normalized to basal levels in the absence of EC17. To study the kinetics of T cell activation and FR correlation in vitro, co-cultures were carried out in FR+/- cell lines at varying E/T ratios (1:27, 1:9, 1:3, 1:1, 3:1) in the continuous presence of 10 nM EC17. The kinetics of target cell killing (i.e., % specific lysis) were quantified after 16 and 48 h of co-culture and normalized to basal levels in the absence of EC17 at defined E/T ratios. Meanwhile, a portion of the supernatants was taken after 44 h of co-culture for measurement of IFNγ, IL-2, and TNFα. The LEGENDplex™ human Th1 cytokine panel (BioLegend, San Diego, CA) was used to determine CAR-T cell derived cytokines.

THP1-FRβ = test: as above; format: cell-based, human
From the text: as §1, §2

KB = test: as above; format: cell-based, human; conditions: E/T 1:1, 24 h co-culture
From the text: as §1, §2

MDA-MB-231 = test: as above; format: cell-based, human; conditions: MDA-MB-231, E/T 1:1, 24 h co-culture
From the text: as §1, §2

[1] = Homo sapiens, EC17, E/T 1:1, 24 h co-culture, curve fitted up to 100 nM
[2] = Homo sapiens, curve fitted up to 100 nM

Question: Which results are given for `Nc1nc2ncc(CNc3ccc(C(=O)NC(CCC(=O)NCCNC(=S)Nc4ccc(-c5c6ccc(=O)cc-6oc6cc(O)ccc56)c(C(=O)O)c4)C(=O)O)cc3)nc2c(=O)[nH]1` (centres unmarked) [EC17, FA-(γ)-ethylenediamine-FITC]?
Answer: time of peak of circulating CAR-T cells (MDA-MB-231 tumor): ~15 days; tumor response (MDA-MB-231 tumor; smaller tumors): started to respond after the second EC17 dose; persistence of circulating CAR-T cells (MDA-MB-231 tumor; last analysis by flow cytometry): up to 30 days; Max. lysis (HOS-FRα; E/T 1:1, 24 h co-culture): 18%; pEC50 (HOS-FRα; [1]): 10.52; Max. lysis (THP1-FRβ; E/T 1:1, 24 h co-culture): 27%; pEC50 (THP1-FRβ; [1]): 10.82; Max. lysis (KB): 11%; pEC50 (KB; [2]): 11.28; pEC50 (MDA-MB-231; [2]): 11.35; Max. lysis (MDA-MB-231): 45%
